Measured values taken from US9138466B2, “Factor H for transplantation” (Baxter International Inc., priority 2013, dated 2015).
“And” between values parts separate entries of the source, which are not always exact repeats. Equal entries are not always repeated. Where two headings read alike, the source gives them in different places. Marks after values point to notes of the source that are not given here.

Columns and labels:
Assay type in all cases: in vivo
[1] = system: collagen antibody-induced arthritis in Balb C mice; assay: Mouse CAIA, hind paw volume / footpad swelling (Example 4); set-up: Mean Disease Burden / Hind Limb Volume, Mean Diff. / Total Disease, Mean Diff.: unit not given here; conditions: for Total Footpad Thickness, Day of Study 8: day 8; for Total Footpad Thickness, Day of Study 11: day 11; for Total Footpad Thickness, Day of Study 12: day 12; for Total Footpad Thickness, Day of Study 13: day 13; for Total Footpad Thickness, Day of Study 15: day 15; for Total Footpad Thickness, Day of Study 19: day 19; for Total Footpad Thickness, Day of Study 22: day 22; for % Disease Suppression: footpad thickness AUC vs vehicle; for Total Disease Burden (AUC): footpad thickness days 8-22, in mL·day
[2] = system: collagen antibody-induced arthritis in Balb C mice; assay: Mouse CAIA, clinical score (Example 4); set-up: key to Mean Maximum Clinical Score: scored 0 to 60, sum of 4 limbs
[3] = system: collagen antibody-induced arthritis in Balb C mice; assay: Mouse CAIA, histopathology of hind limbs (ankle, H & E) (Example 4)
[4] = Mouse CAIA, body weight and tolerability (Example 4)
Protocol: Balb C mice (n=10 per cohort) were used to determine the efficacy of Factor H (FH) during transplant rejection. The mice were treated with ArthritoMAb (anti-collagen) antibody cocktail (2 mg, i.v.) on day 1, followed 7 days later with an injection of LPS (50 μg, i.p.). On day 8, hind paw volumes were measured for each animal and distributed to various treatment groups.
Hind paw volumes were measured on day 8, 11, 12, 13, 15, 19 and 22 (endpoint). The age at start date was 7 to 9 weeks. Body weights were measured bi-weekly to the endpoint (Table 4). At the endpoint, tissue samples were processed for histology and submitted to a pathologist for independent analysis. Sampling 1 was performed at the endpoint. The hind limbs were preserved in 10% formalin. Sampling 2 was performed at the endpoint for group 4 animals. Blood was collected by terminal cardiac puncture. The blood was processed for anti-coagulant. The kidneys were additionally preserved in formalin and followed with 70% EtOH. Samples were scored for inflammation, pannus (granulation tissue), cartilage damage, bone resorption and exostosis (Table 5).

[5] = Dunnett's Multiple Comparison Test, G1 vehicle vs treatment
[6] = Dunnett's Multiple Comparison Test, vehicle vs treatment
[7] = Dunn's Multiple Comparison Test, G1 vehicle vs treatment
[8] = ankle, group mean, score 0 = normal to 5 = severe
[9] = ankle, individual animal, score 0 = normal to 5 = severe
[10] = ankle, individual animal, score 0 = normal to 5 = severe, listed as Group 2

In the case of `C[C@@H]1C[C@H]2[C@@H]3CCC4=CC(=O)C=C[C@]4(C)[C@@]3(F)[C@@H](O)C[C@]2(C)[C@@]1(O)C(=O)CO` [Dexamethasone], the “Mean Disease Burden” value ([1]; AUC of combined footpad volume over baseline, days 8 to 22, group mean, vehicle 1.93) is reported as −0.32***, the “Total Disease, 95% CI of diff” value [1, 5] is reported as 1.50 to 3.00 and the “Total Disease, Mean Diff.” value [1, 5] is reported as 2.25. The “Total Disease, Summary” value [1, 5] was “*** (***= P < 0.001)”, the “Total Disease, q” value [1, 5] was 7.36 and the “Hind Limb Volume, 95% CI of diff” value [1, 6] was 0.09687 to 0.2080. The “Hind Limb Volume, Mean Diff.” value [1, 6] was 0.1524, the “Hind Limb Volume, Summary” value [1, 6] was “*** (***= P < 0.001)” and the “Hind Limb Volume, q” value [1, 6] was 6.877. For the same molecule, the “Total Footpad Thickness, Day of Study 8” value ([1]; group mean, n 10) was 0.35 mL, the “Total Footpad Thickness, Day of Study 8” value ([1]; individual animals (A# 1-10)) was 0.42 mL and 0.39 mL (2×) and 0.37 mL and 0.35 mL and 0.34 mL and 0.33 mL and 0.31 mL (2×) and 0.3 mL and the “Total Footpad Thickness, Day of Study 11” value ([1]; group mean, n 10) was 0.32 mL. The “Total Footpad Thickness, Day of Study 11” value ([1]; individual animals (A# 1-10)) was 0.30 mL and 0.34 mL and 0.32 mL (3×) and 0.3 mL (3×) and 0.35 mL and 0.31 mL, the “Total Footpad Thickness, Day of Study 12” value ([1]; group mean, n 10) was 0.34 mL and the “Total Footpad Thickness, Day of Study 12” value ([1]; individual animals (A# 1-10)) was 0.34 mL (4×) and 0.28 mL and 0.35 mL and 0.32 mL and 0.31 mL and 0.39 mL and 0.37 mL. The “Total Footpad Thickness, Day of Study 13” value ([1]; group mean, n 10) was 0.33 mL, the “Total Footpad Thickness, Day of Study 13” value ([1]; individual animals (A# 1-10)) was 0.31 mL (2×) and 0.3 mL (2×) and 0.36 mL and 0.38 mL (2×) and 0.33 mL and 0.35 mL and 0.29 mL and the “Total Footpad Thickness, Day of Study 15” value ([1]; group mean, n 10) was 0.31 mL. For the same molecule, the “Total Footpad Thickness, Day of Study 15” value ([1]; individual animals (A# 1-10)) was 0.37 mL and 0.33 mL and 0.29 mL (3×) and 0.38 mL and 0.26 mL and 0.3 mL (2×) and 0.27 mL, the “Total Footpad Thickness, Day of Study 19” value ([1]; group mean, n 10) was 0.34 mL and the “Total Footpad Thickness, Day of Study 19” value ([1]; individual animals (A# 1-10)) was 0.35 mL (4×) and 0.28 mL and 0.3 mL and 0.38 mL and 0.37 mL and 0.32 mL and 0.0 mL. For the same molecule, the “Total Footpad Thickness, Day of Study 22” value ([1]; group mean, n 10) was 0.31 mL, the “Total Footpad Thickness, Day of Study 22” value ([1]; individual animals (A# 1-10)) was 0.39 mL and 0.42 mL and 0.3 mL and 0.32 mL and 0.29 mL (2×) and 0.35 mL (2×) and 0.31 mL and 0.25 mL and the “% Disease Suppression” value ([1]; group mean, n 10) was 116.49%. For the same molecule, the “% Disease Suppression” value ([1]; individual animals (A# 1-10)) was 139.7% and 129.0% and 162.5% and 125.0% and 114.5% and 102.9% and 104.7% and 87.3% and 96.1% and 101.3%, the “Total Disease Burden (AUC)” value ([1]; group mean, n 10) was −0.32 and the “Total Disease Burden (AUC)” value ([1]; individual animals (A# 1-10)) was −0.77 and −0.51 and −1.21 and −0.54 and −0.28 and −0.06 and −0.09 and 0.25 and 0.10 and −0.02. The “Maximum Δ Mean Volume” value ([1]; mean combined foot pad volume, day 8 vs median day of maximal swelling, vehicle 0.21) was 0.03*** ml, the “% Disease Suppression (vs Vehicle)” value ([1]; percent decrease in total disease burden relative to vehicle) was 116.5% and the “Clinical Score, Difference in rank sum” value [2, 7] was 23.95. For the same molecule, the “Clinical Score, Summary” value [2, 7] was “*** (***= P < 0.001)”, the “Clinical score, Mean” value ([2]; day 8, group mean n=10) was 4.00 and the Clinical score ([2]; day 8, individual animal) was 5 (2×) and 10 (3×) and 0 (5×). The “Clinical score, Mean” value ([2]; day 11, group mean n=10) was 0.10, the Clinical score ([2]; day 11, individual animal) was 0 (9×) and 1 and the “Clinical score, Mean” value ([2]; day 12, group mean n=10) was 5.70. For the same molecule, the Clinical score ([2]; day 12, individual animal) was 0 (3×) and 10 (4×) and 5 (2×) and 7, the “Clinical score, Mean” value ([2]; day 13, group mean n=10) was 6.00 and the Clinical score ([2]; day 13, individual animal) was 0 (4×) and 10 (6×). The “Clinical score, Mean” value ([2]; day 15, group mean n=10) was 0.00, the Clinical score ([2]; day 15, individual animal) was 0 and the “Clinical score, Mean” value ([2]; day 19, group mean n=10) was 0.00. The Clinical score ([2]; day 19, individual animal) was 0, the “Clinical score, Mean” value ([2]; day 22, group mean n=10) was 0.00 and the Clinical score ([2]; day 22, individual animal) was 0. For the same molecule, the “Day (of Max Clin Score), Mean” value ([2]; group line 'Mean', day of study) was 12.00, the “Max Clin Score, Mean” value ([2]; group mean n=10) was 9.20 and the “Max Clin Score” value ([2]; individual animal) was 5 and 10 (8×) and 7. The “Day (of Max Clin Score)” value ([2]; individual animal, day of study) was 8 (4×) and 13 (2×) and 12 (4×), the “Mean Maximum Clinical Score” value ([2]; scored from 0 to 60, sum of 4 limbs, vehicle 45.4) was 9.2*** and the “Score From H & E, Bone Resorption” value [3] was 0.8 ± 0.9. The “Cartilage, Difference in rank sum” value [3, 7] was 9.25, the “Composite, Difference in rank sum” value [3, 7] was 14.05 and the “Composite, Summary” value [3, 7] was “* (*= P < 0.05)”. The “Exostosis, Difference in rank sum” value [3, 7] was 13.1, the “Exostosis, Summary” value [3, 7] was “** (**= P < 0.01)” and the “Inflammation, Difference in rank sum” value [3, 7] was 14.95. The “Inflammation, Summary” value [3, 7] was “** (**= P < 0.01)”, the “Pannus, Difference in rank sum” value [3, 7] was 11.4 and the “Composite Histopathaligy Score” value ([3]; ankle, group mean) was 0.2 ± 0.1. The “Score From H & E, Cartilage Damage” value [3, 8] was 0.9 ± 0.8, the “Score From H & E, Inflammation” value [3, 8] was 0.3 ± 0.1 and the “Score From H & E, Pannus” value [3, 8] was 0.1 ± 0.1. The “Score From H & E, Periosteal Exostotic Changes” value [3, 8] was 0.9 ± 0.8, the “Score From H & E, Bone Resorption” value [3, 9] was 0 and the “Score From H & E, Cartilage Damage” value [3, 9] was 0. The “Score From H & E, Periosteal Exostotic Changes” value [3, 9] was 0, the “Score From H & E, Inflammation” value [3, 10] was 0 (9×) and 1 and the “Score From H & E, Pannus” value [3, 10] was 1 and 0 (9×). For the same molecule, the “Composite Histopathaligy Score” value ([3]; ankle, individual animal, listed as Group 2) was 3 and 0 (8×) and 1, the “Bone Resorption” value ([3]; histopathology summary, graded 1-5, vehicle 0.6 ± 0.3) was 0 ± 0^ns and the Pannus ([3]; histopathology summary, graded 1-5, vehicle 1.0 ± 0.3) was 0.1 ± 0.1^ns. The Inflammation ([3]; histopathology summary, graded 1-5, vehicle 2.0 ± 0.5) was 0.1 ± 0.1, the Exostosis ([3]; histopathology summary, graded 1 to 5, vehicle 2.6 ± 0.5) was 0 ± 0 and the “Cartilage Damage” value ([3]; histopathology summary, vehicle 0.5 ± 0.2) was 0 ± 0^ns. For the same molecule, the “Composite Score” value ([3]; histopathology summary, vehicle 6.7 ± 1.7) was 0.2 ± 0.1, the “Body Weight, Wt (g), Mean” value ([4]; day 1, group mean n=10, before dosing start (day 8)) was 17.7 g and the “Body Weight, Wt (g), Mean” value ([4]; day 5, group mean n=10, before dosing start (day 8)) was 17.9 g. For the same molecule, the “Body Weight, Wt (g), Mean” value ([4]; day 8, group mean n=10) was 16.3 g, the “Body Weight, Wt (g), Mean” value ([4]; day 12, group mean n=10) was 16.8 g and the “Body Weight, Wt (g), Mean” value ([4]; day 15, group mean n=10) was 16.7 g. The “Body Weight, Wt (g), Mean” value ([4]; day 19, group mean n=10) was 16.5 g, the “Body Weight, Wt (g), Mean” value ([4]; day 22, group mean n=10) was 16.5 g and the “Mean Body Weigh at Nadir” value ([4]; lowest group mean body weight as % change from day 1, vehicle −8.0%) was −7.7%.
